According to PMC6556873, “Rapid Covalent-Probe Discovery by Electrophile-Fragment Screening” (Journal of the American Chemical Society, 2019):
Like-named read-outs stand apart in the source and are kept apart here.

Experiments:
[1] = in vitro; parameters: species or system HB2, CCD841; conditions: human, hek293 cells
[2] = in vitro; parameters: species or system HB2, HEK293; conditions: human, ccd841 cells
[3] = target: T1, OTUB2 (OTUB2A) (Homo sapiens, UniProt Q96DC9); parameters: Intact protein LC/MS covalent labelling, fragments in pools of five, 200 uM each, 4 °C; conditions: 24 h, 4 °C, pool of five; 200 µM; covalent
T1 construct: full length residues 1-234, E. coli BL21(DE3)-R3, His tag removed by TEV, construct 27312 Da
T1 sequence (Q96DC9 1-234): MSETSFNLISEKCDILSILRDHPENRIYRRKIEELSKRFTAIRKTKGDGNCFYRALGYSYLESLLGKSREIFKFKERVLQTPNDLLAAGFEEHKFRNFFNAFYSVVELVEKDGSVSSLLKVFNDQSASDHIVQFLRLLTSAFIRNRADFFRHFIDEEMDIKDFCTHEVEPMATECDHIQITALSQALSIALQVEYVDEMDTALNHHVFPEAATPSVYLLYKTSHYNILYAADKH

[4] = target: T2, PCAF (Homo sapiens, UniProt Q92831); parameters: Intact protein LC/MS covalent labelling, fragments in pools of five, 200 uM each, 4 °C; conditions: 24 h, 4 °C, pool of five; 200 µM; covalent
T2 construct: gene KAT2B
T2 sequence (Q92831 whole entry, the tested form may be a part): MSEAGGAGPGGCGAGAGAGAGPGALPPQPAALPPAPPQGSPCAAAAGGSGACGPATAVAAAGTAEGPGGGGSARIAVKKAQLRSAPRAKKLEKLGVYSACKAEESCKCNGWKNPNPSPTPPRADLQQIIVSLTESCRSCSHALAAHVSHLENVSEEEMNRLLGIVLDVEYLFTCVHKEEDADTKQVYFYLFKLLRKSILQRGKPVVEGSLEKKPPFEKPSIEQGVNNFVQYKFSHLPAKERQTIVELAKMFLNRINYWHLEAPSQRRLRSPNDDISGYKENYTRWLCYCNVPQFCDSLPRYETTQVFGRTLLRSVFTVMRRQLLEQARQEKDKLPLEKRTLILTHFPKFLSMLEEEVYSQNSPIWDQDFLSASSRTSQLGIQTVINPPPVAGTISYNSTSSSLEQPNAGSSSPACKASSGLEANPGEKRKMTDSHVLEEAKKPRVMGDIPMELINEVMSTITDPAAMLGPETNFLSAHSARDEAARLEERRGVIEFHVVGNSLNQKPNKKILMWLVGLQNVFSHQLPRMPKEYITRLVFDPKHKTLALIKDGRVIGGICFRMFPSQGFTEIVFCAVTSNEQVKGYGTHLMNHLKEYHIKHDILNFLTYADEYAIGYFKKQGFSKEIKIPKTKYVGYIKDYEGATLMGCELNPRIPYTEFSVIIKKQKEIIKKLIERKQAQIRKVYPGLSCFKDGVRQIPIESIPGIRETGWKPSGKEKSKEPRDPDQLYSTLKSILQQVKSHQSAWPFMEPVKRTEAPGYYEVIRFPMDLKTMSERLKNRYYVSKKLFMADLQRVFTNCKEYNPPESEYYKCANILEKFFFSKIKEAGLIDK

[5] = target: T3, BSA (Bos taurus, UniProt P02769); parameters: Intact protein LC/MS covalent labelling, fragments in pools of five, 200 uM each, 4 °C; conditions: 24 h, 4 °C, pool of five; 200 µM; covalent
T3 construct: gene ALB
T3 sequence (P02769 whole entry, the tested form may be a part): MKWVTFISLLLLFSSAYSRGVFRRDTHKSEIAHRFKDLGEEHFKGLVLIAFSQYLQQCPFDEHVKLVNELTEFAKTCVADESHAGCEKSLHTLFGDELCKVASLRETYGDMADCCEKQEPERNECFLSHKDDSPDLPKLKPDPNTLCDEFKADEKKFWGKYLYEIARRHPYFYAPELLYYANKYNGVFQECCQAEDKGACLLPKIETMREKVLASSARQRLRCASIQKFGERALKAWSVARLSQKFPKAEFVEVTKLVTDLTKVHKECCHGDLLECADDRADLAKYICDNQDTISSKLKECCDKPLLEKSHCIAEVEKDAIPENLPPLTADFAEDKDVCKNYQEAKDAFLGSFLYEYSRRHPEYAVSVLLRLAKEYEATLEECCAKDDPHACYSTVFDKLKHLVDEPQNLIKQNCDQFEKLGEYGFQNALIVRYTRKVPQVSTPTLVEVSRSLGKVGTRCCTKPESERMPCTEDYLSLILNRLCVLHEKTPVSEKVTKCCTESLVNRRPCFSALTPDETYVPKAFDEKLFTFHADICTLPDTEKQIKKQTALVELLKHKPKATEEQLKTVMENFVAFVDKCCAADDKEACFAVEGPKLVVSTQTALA

[6] = target: T4, NUDT7 (Homo sapiens, UniProt P0C024); parameters: Intact protein LC/MS covalent labelling, fragments in pools of five, 200 uM each, 4 °C; conditions: 24 h, 4 °C, pool of five; 200 µM; covalent
T4 construct: residues 14-235, E. coli, pNIC28-Bsa4, N-terminal His6 tag removed by TEV, construct 26672 Da
T4 sequence (P0C024 14-235): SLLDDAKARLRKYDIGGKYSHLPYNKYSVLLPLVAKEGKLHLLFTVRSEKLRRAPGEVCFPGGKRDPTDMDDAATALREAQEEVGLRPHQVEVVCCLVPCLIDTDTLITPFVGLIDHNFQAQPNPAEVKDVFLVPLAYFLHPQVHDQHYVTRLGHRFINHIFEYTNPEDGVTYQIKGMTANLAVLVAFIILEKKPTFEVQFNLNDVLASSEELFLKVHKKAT

[7] = in vitro; parameters: species or system CCD841, HEK293; conditions: human, hb2 cells, read-out: HB-2 Cells Viability (%)

Compound	viability at 48 h, 10 µM [1]	viability at 48 h, 10 µM [2]	OTUB2 [3]	PCAF [4]	BSA [5]	NUDT7 [6]	viability at 48 h, 10 µM [7]
O=C(CCl)Nc1ccc(Cl)cc1C(=O)O [PCM-0102127]	86.8%	104%	0.1	0	0	0	100%
Cc1cc(C)cc(NC(=O)CCl)c1 [PCM-0102394]	22.3%	69.9%	0.22	0	0	0	31.4%
CC(c1ccc(F)c(F)c1)N(C)C(=O)CCl (stereo not shown) [PCM-0102438]	16.4%	39.3%	0.08	0	0	0.14	23.2%
C=CC(=O)N1CCCC(NS(C)(=O)=O)C1 (stereo not shown) [PCM-0102522]	106%	112%	0	0	0	0	106%
C=CC(=O)N1CCCC2(CNC(=O)O2)C1 (stereo not shown) [PCM-0102808]	102%	113%	0.13	0	0	0	103%
N#Cc1c(NC(=O)CCl)sc2c1CCC2 [PCM-0102452]	96.6%	93.5%	0.07	0	0	0	87.2%
C=CC(=O)N1CCCC(CC(=O)OC(C)(C)C)CC1 (stereo not shown) [PCM-0102609]	90.6%	104%	0.06	0	0	0	106%
COC(=O)c1sccc1NC(=O)CCl [PCM-0102367]	54%	85.5%	0	0	0	0.12	75%
Cc1nc(CN2CCN(C(=O)CCl)CC2)cs1 [PCM-0102630]	67.4%	79.3%	0	0	0	0	92%
O=C(CCl)Nc1ccc2c(c1)C(=O)c1ccccc1C2=O [PCM-0102194]	0.7%	13.7%	0	0	0	0	1.4%
Cl.O=C(CCl)N1CCN(c2cccc(Cl)c2)CC1 [PCM-0103032]	58.5%	71.1%	0.21	0	0	0.22	12%
Cl.O=C(CCl)N1CCN(c2ccccn2)CC1 [PCM-0102213]	81.6%	94.7%	0	0	0	0	84.5%
Cc1cc(NC(=O)CCl)no1 [PCM-0102500]	60.3%	73.3%	0.35	0	0	0	66.8%
O=C(CCl)NC1(c2ccccc2)CCC1 [PCM-0102935]	53.8%	89.7%	0	0	0	0.29	81.5%
CC1Cc2cc(S(N)(=O)=O)ccc2N1C(=O)CCl (stereo not shown) [PCM-0102207]	16.5%	34.2%	0	0	0	0.07	58.7%
C=CC(=O)NCC1COc2ccccc2O1 (stereo not shown) [PCM-0102713]	76.1%	102%	0	0	0	0.16	99%
